Source: PMC8632988, “Inhibition of SYK and cSrc kinases can protect bone and cartilage in preclinical models of osteoarthritis and rheumatoid arthritis” (Scientific Reports, 2021)
Values joined by “and” are separate entries in the source; they are usually repeats but may differ in a detail not shown here. Equal values may be shown once.

Test system: Lewis rats, CIA model
Assay: Collagen-induced semi-established arthritis model in rats
Assay type: in vivo, rat
Settings: for Bone Resorption score, Mean / Cartilage Damage score, Mean / Inflammation score, Mean / Pannus score, Mean / Periosteal Bone Formation score, Mean / Periosteal Naïve Bone Width Actual, Mean / Summed Histopathology Scores, Mean: group mean; for Bone Resorption score (0=normal to 5=severe) / Cartilage Damage score (0=normal to 5=severe) / Inflammation score (0=normal to 5=severe) / Pannus score (0=normal to 5=severe) / Periosteal Bone Formation score (0=normal to 5=severe) / Periosteal Naïve Bone Width 16x Measure / Periosteal Naïve Bone Width Actual / Summed Histopathology Scores: individual joint (animal, R/L); for Bone Resorption score, % inhibition / Cartilage Damage score, % inhibition / Inflammation score, % inhibition / Pannus score, % inhibition / Periosteal Bone Formation score, % inhibition / Periosteal Naïve Bone Width, % inhibition / Summed Histopathology Scores, % inhibition: vs vehicle
Method: Rat CIA model was performed was performed at Pharmenterprises, Russia and approved by Ethics Committee of Pharmenterprises. Female Lewis rats with body weight of 164–183 g (Charles River Laboratories, Inc., Wilmington, MA) were injected with porcine type II collagen (Chondrex) emulsified with Freund’s Incomplete Adjuvant (Sigma Aldrich) at two sites at the base of the tail according to standard protocol. On day 7, the rats were boosted with a second subcutaneous injection. On day 6 of the study, rats were randomized by body weight into six groups: a control group of four, and five treatment groups of eight. […] Disease progression was monitored via daily ankle thickness measurements. At study termination on day 16 rats were anesthetized with Isoflurane, bled by vacutainer through the descending aorta to exsanguinate and then euthanized for tissue collection. Hind paws were transected at the level of the medial and lateral malleolus, weighed, and collected for microscopy.
[…]

[1] = ankle, day 16, MT-SYK-03 103 mg/kg PO BID + MTX Veh PO QD
[2] = ankle, day 16, MT-SYK-03 103 mg/kg PO BID + MTX Veh PO QD, 103 mg/kg
[3] = ankle, day 16, MT-SYK-03 207 mg/kg PO BID
[4] = ankle, day 16, MT-SYK-03 207 mg/kg PO BID, 207 mg/kg
[5] = knee, day 16, MT-SYK-03 103 mg/kg PO BID + MTX Veh PO QD
[6] = knee, day 16, MT-SYK-03 103 mg/kg PO BID + MTX Veh PO QD, 103 mg/kg
[7] = knee, day 16, MT-SYK-03 207 mg/kg PO BID + MTX Veh PO QD
[8] = knee, day 16, MT-SYK-03 207 mg/kg PO BID + MTX Veh PO QD, 207 mg/kg

**Q.** With `COc1cc(Nc2ncnc(Nc3cc4c(cn3)NC(=O)C(C)(C)O4)n2)cc(OC)c1OC` [MT-SYK-03] as the compound, how does the “Bone Resorption score, Mean” value [1] read?
**A.** 1.50

**Q.** What about the “Cartilage Damage score, Mean” value [1] of the same compound?
**A.** 2.09

**Q.** And the “Inflammation score, Mean” value [1]?
**A.** 4.44

**Q.** And the “Pannus score, Mean” value [1]?
**A.** 1.50

**Q.** And the “Periosteal Bone Formation score, Mean” value [1]?
**A.** 1.19

**Q.** And the “Periosteal Naïve Bone Width Actual, Mean” value [1]?
**A.** 200.81 μm

**Q.** And the “Summed Histopathology Scores, Mean” value [1]?
**A.** 10.72

**Q.** What about the “Bone Resorption score (0=normal to 5=severe)” value [2] of the same compound?
**A.** 2 and 0.5 and 1

**Q.** What about the “Cartilage Damage score (0=normal to 5=severe)” value [2] of the same compound?
**A.** 3 and 0.5 and 2 and 1

**Q.** And the “Inflammation score (0=normal to 5=severe)” value [2]?
**A.** 5 and 2 and 4 and 3

**Q.** What about the “Pannus score (0=normal to 5=severe)” value [2] of the same compound?
**A.** 2 and 0.5 and 1

**Q.** What about the “Periosteal Bone Formation score (0=normal to 5=severe)” value [2] of the same compound?
**A.** 2 and 0 and 1 and 0.5

**Q.** What about the “Periosteal Naïve Bone Width 16x Measure” value [2] of the same compound?
**A.** 5 and 0 and 3 and 2 and 1 and 4

**Q.** And the “Periosteal Naïve Bone Width Actual” value [2]?
**A.** 315 μm and 0 μm and 189 μm and 126 μm and 63 μm and 252 μm

**Q.** And the “Summed Histopathology Scores” value [2]?
**A.** 14 and 3.5 and 12 and 13 and 10 and 6.5 and 7.5 and 8.5

**Q.** And the “Bone Resorption score, % inhibition” value [1]?
**A.** −2%

**Q.** What about the “Cartilage Damage score, % inhibition” value [1] of the same compound?
**A.** 13%

**Q.** And the “Inflammation score, % inhibition” value [1]?
**A.** 1%

**Q.** What about the “Pannus score, % inhibition” value [1] of the same compound?
**A.** -2%

**Q.** What about the “Periosteal Bone Formation score, % inhibition” value [1] of the same compound?
**A.** 7%

**Q.** And the “Periosteal Naïve Bone Width, % inhibition” value [1]?
**A.** 11%

**Q.** And the “Summed Histopathology Scores, % inhibition” value [1]?
**A.** 4%

**Q.** What about the “Bone Resorption score, Mean” value [3] of the same compound?
**A.** 1.06

**Q.** What about the “Cartilage Damage score, Mean” value [3] of the same compound?
**A.** 1.78

**Q.** And the “Inflammation score, Mean” value [3]?
**A.** 3.84

**Q.** And the “Pannus score, Mean” value [3]?
**A.** 1.06

**Q.** What about the “Periosteal Bone Formation score, Mean” value [3] of the same compound?
**A.** 0.69

**Q.** And the “Periosteal Naïve Bone Width Actual, Mean” value [3]?
**A.** 129.94 μm

**Q.** And the “Summed Histopathology Scores, Mean” value [3]?
**A.** 8.44

**Q.** And the “Bone Resorption score (0=normal to 5=severe)” value [4]?
**A.** 1 and 2 and 0 and 0.5

**Q.** And the “Cartilage Damage score (0=normal to 5=severe)” value [4]?
**A.** 2 and 3 and 0.5 and 1

**Q.** And the “Inflammation score (0=normal to 5=severe)” value [4]?
**A.** 4 and 5 and 0.5 and 1 and 2 and 3

**Q.** And the “Pannus score (0=normal to 5=severe)” value [4]?
**A.** 1 and 2 and 0 and 0.5

**Q.** What about the “Periosteal Bone Formation score (0=normal to 5=severe)” value [4] of the same compound?
**A.** 0.5 and 1 and 0 and 2

**Q.** And the “Periosteal Naïve Bone Width 16x Measure” value [4]?
**A.** 1 and 2 and 3 and 4 and 0 and 5

**Q.** What about the “Periosteal Naïve Bone Width Actual” value [4] of the same compound?
**A.** 63 μm and 126 μm and 189 μm and 252 μm and 0 μm and 315 μm

**Q.** What about the “Summed Histopathology Scores” value [4] of the same compound?
**A.** 8.5 and 12.5 and 13 and 12 and 10 and 1 and 1.5 and 3.5 and 4 and 14 and 6.5

**Q.** What about the “Periosteal Naïve Bone Width, ANOVA to Vehicle” value (ankle, day 16, MT-SYK-03 207 mg/kg PO BID, p value) of the same compound?
**A.** p < 0.05

**Q.** And the “Bone Resorption score, % inhibition” value [3]?
**A.** 28%

**Q.** And the “Cartilage Damage score, % inhibition” value [3]?
**A.** 26%

**Q.** And the “Inflammation score, % inhibition” value [3]?
**A.** 15%

**Q.** What about the “Pannus score, % inhibition” value [3] of the same compound?
**A.** 28%

**Q.** What about the “Periosteal Bone Formation score, % inhibition” value [3] of the same compound?
**A.** 46%

**Q.** What about the “Periosteal Naïve Bone Width, % inhibition” value [3] of the same compound?
**A.** 42%

**Q.** And the “Summed Histopathology Scores, % inhibition” value [3]?
**A.** 24%

**Q.** And the “Bone Resorption score, Mean” value [5]?
**A.** 0.66

**Q.** And the “Cartilage Damage score, Mean” value [5]?
**A.** 1.03

**Q.** And the “Inflammation score, Mean” value [5]?
**A.** 2.78

**Q.** What about the “Pannus score, Mean” value [5] of the same compound?
**A.** 0.72

**Q.** And the “Summed Histopathology Scores, Mean” value [5]?
**A.** 5.19

**Q.** What about the “Bone Resorption score (0=normal to 5=severe)” value [6] of the same compound?
**A.** 1 and 2 and 0 and 0.5

**Q.** And the “Cartilage Damage score (0=normal to 5=severe)” value [6]?
**A.** 2 and 0 and 1 and 0.5

**Q.** What about the “Inflammation score (0=normal to 5=severe)” value [6] of the same compound?
**A.** 5 and 0.5 and 4 and 3 and 2

**Q.** And the “Pannus score (0=normal to 5=severe)” value [6]?
**A.** 1 and 2 and 0 and 0.5

**Q.** And the “Summed Histopathology Scores” value [6]?
**A.** 9 and 11 and 0.5 and 7 and 8 and 5 and 4.5 and 3 and 1

**Q.** And the “Bone Resorption score, % inhibition” value [5]?
**A.** 9%

**Q.** And the “Cartilage Damage score, % inhibition” value [5]?
**A.** 21%

**Q.** And the “Inflammation score, % inhibition” value [5]?
**A.** 13%

**Q.** What about the “Pannus score, % inhibition” value [5] of the same compound?
**A.** 4%

**Q.** What about the “Summed Histopathology Scores, % inhibition” value [5] of the same compound?
**A.** 13%

**Q.** And the “Bone Resorption score, Mean” value [7]?
**A.** 0.16

**Q.** And the “Cartilage Damage score, Mean” value [7]?
**A.** 0.56

**Q.** And the “Inflammation score, Mean” value [7]?
**A.** 1.59

**Q.** What about the “Pannus score, Mean” value [7] of the same compound?
**A.** 0.41

**Q.** What about the “Summed Histopathology Scores, Mean” value [7] of the same compound?
**A.** 2.63

**Q.** And the “Bone Resorption score (0=normal to 5=severe)” value [8]?
**A.** 0.5 and 1 and 0

**Q.** What about the “Cartilage Damage score (0=normal to 5=severe)” value [8] of the same compound?
**A.** 1 and 0 and 0.5
